Assay results as given in patent publication US20220362386A1, “LIQUID COMPOSITIONS COMPRISING A LEVODOPA AMINO ACID CONJUGATE AND USES THEREOF” (NeuroDerm, Ltd., priority 2019, published 2022).
Where a name gives a salt, the structure may show the parent alone. Read-outs that look alike come from different tables or passages of the source. Non-standard residues stand in square brackets, D forms with d. Residues, ends and D or L forms follow the SMILES beside them. Dopa = N[C@@H](Cc1ccc(O)c(O)c1)C(=O)O

Tests used:
human plasma = experiment: Protein binding, solid phase extraction (SPE) method; assay type: in vitro ADME; settings: 1.0E−05M; SPE sample preparation
Method: (§1) A solid phase extraction (SPE) method was used to prepare samples for several compounds in the plasma protein binding assay. The following SPE protocols were followed:
(§2) Sorbent: Waters Oasis MCX 96—well MicroElution Plate—Cat #186001830BA Sample: 200 μL of plasma spiked at 10 μM with test compound. Sample was diluted 1:1 with 4% phosphoric acid in water and mixed for 15 minutes 1) Place Oasis plate on vacuum manifold and set vacuum to 5″ Hg; 2) Condition with 200 μL methanol; 3) Equilibrate with 200 μL water; 4) Load dilute plasma sample; 5) Wash with 200 μL 2% formic acid in water; 6) Wash with 400 μL methanol; and 7) Elute with 100 μL 5% NH4OH in methanol.
as §2, with “MAX 96-well” for “MCX 96—well”, “plate—Cat #186001829” for “Plate—Cat #186001830BA”, “5% NH4OH” for “2% formic acid”, “2% formic acid” for “5% NH4OH”

[1] = as above; assay type: in vitro ADME, human; settings: human, human plasma, 1.0E−05M, SPE sample preparation
Method: as §1, §2
as §2, with “MAX 96-well” for “MCX 96—well”, “plate—Cat #186001829” for “Plate—Cat #186001830BA”, “5% NH4OH” for “2% formic acid”, “2% formic acid” for “5% NH4OH”

[2] = In-vitro absorption, Caco-2 A-B permeability; assay type: in vitro ADME, human; settings: human, Caco-2, pH 7.4, Caco-2 A-B, without verapamil; for Papp A→B at 60 min, 10 μM: 1.0E−05M
Method: (§3) Conditions may be adjusted when necessary.
(§4) D denotes donor and R is receiver. […] V is the volume of the donor or receiver.
(§5) The test was performed with and without verapamil, which is a permeation inhibitor, and the results are presented in Tables 22 (without verapamil) and 34 (with verapamil).

P-gp = experiment: In-vitro absorption, Caco-2 A-B permeability; assay type: in vitro ADME, human; settings: human, Caco-2, pH 7.4, with verapamil 100 μM on both the A and B sides, Caco-2 A-B, in the presence of verapamil
Method: as §3, §4, §5

in vitro = settings: human
Method: Caco-2 cells are human intestinal epithelial cells derived from a colorectal adenocarcinoma.
The assays are performed in both the apical to basolateral (A-B) and the B-A direction. The test compound is prepared at 10 μM in HBSS-HEPES (pH 7.4) with a final DMSO concentration of 1%. The working solution is centrifuged, and the supernatant is added to the donor side. The assay plate is incubated at 37° C. with gentle shaking for 60 min or 40 min for the A-B or B-A assay, respectively. For Pgp substrate assessment, the assays are run with and without 100 μM verapamil on both the A and B sides. For BCRP substrate assessment, the assays are run with and without 10 μM Ko143 on both the A and B sides. For MRP2 substrate assessment, the assays are run with and without 100 μM MK571 on both the A and B sides. Samples are aliquoted from the donor side at time zero and the end point, and from the receiver side at the end point.
Propranolol (highly permeable), labetalol (moderately permeable), ranitidine (poorly permeable), and colchicine (P-glycoprotein substrate), estrone-3-sulfate (BCRP substrate), or CDCF (MRP2 substrate) are included in each assay.
Samples are analyzed by HPLC-MS/MS using selected reaction monitoring. The HPLC system consists of a binary LC pump with an autosampler, a C-18 column, and a gradient. Conditions may be adjusted when necessary.
Fluorescein permeability is assessed in the A-B direction at pH 7.4 on both sides after the permeability assay with the test compound. The cell monolayer with a fluorescein permeability of less than 1.5×10−6 cm/s is considered intact.
The apparent permeability coefficient (Papp) of the test compound and its recovery are calculated as follows: […]
A is the surface area of the cell monolayer (0.11 cm^2). C is concentration of the test compound, expressed as peak area. D denotes donor and R is receiver. 0, mid, and end denote time zero, mid-point, and end of the incubation. Δt is the incubation time. V is the volume of the donor or receiver.
The permeability capabilities of the several LDAA compounds, in their TFA salt form, were determined using the Caco-2 B-A method.

[3] = read-out: Percent Recovery Mean
[4] = Caco-2, pH 7.4, Percent Recovery 1st
[5] = Caco-2, pH 7.4, Percent Recovery 2nd
[6] = Caco-2, pH 7.4, Percent Recovery Mean
[7] = Caco-2, pH 7.4, Permeability 1st
[8] = Caco-2, pH 7.4, Permeability 2nd
[9] = Caco-2, pH 7.4, Permeability Mean

SMILES | % Protein Bound 1st (human plasma) [%] | % Protein Bound 2nd (human plasma) [%] | % Protein Bound Mean (human plasma) [%] | recovery at 10 μM ([1]; read-out: % Recovery 1st) [%] | recovery at 10 μM ([1]; read-out: % Recovery 2nd) [%] | Papp A→B at 60 min, 10 μM ([2]; read-out: Permeability 1st) [×10⁻⁶ cm/s] | Papp A→B at 60 min, 10 μM ([2]; read-out: Permeability 2nd) [×10⁻⁶ cm/s] | Papp A→B at 60 min, 10 μM ([2]; read-out: Permeability Mean) [×10⁻⁶ cm/s] | recovery at 60 min, 10 μM ([2]; read-out: Percent Recovery 1st) [%] | recovery at 60 min, 10 μM ([2]; read-out: Percent Recovery 2nd) [%] | recovery at 60 min, 10 μM [2, 3] [%] | recovery at 60 min, 10 μM (P-gp; read-out: Percent Recovery 1st) [%] | recovery at 60 min, 10 μM (P-gp; read-out: Percent Recovery 2nd) [%] | recovery at 60 min, 10 μM (P-gp; [3]) [%] | recovery at 40 min, 10 μM (in vitro; [4]) [%] | recovery at 40 min, 10 μM (in vitro; [5]) [%] | recovery at 40 min, 10 μM (in vitro; [6]) [%] | Papp B→A at 40 min, 10 μM (in vitro; [7]) [×10⁻⁶ cm/s] | Papp B→A at 40 min, 10 μM (in vitro; [8]) [×10⁻⁶ cm/s] | Papp B→A at 40 min, 10 μM (in vitro; [9]) [×10⁻⁶ cm/s] | also measured
NCCCC[C@H](NC(=O)[C@@H](N)Cc1ccc(O)c(O)c1)C(=O)O [LD-Lys TFA salt, Levodopa Lysine TFA Salt] (H-[Dopa]-Lys-OH) | 0.3 | 18.7 | 10 | 79 | 63 | 0.12 | 0.09 | < 0.1 | 21 | 38 | 30 | 33 | 33 | 33 | 79 | 86 | 82 | 0.03 | 0.03 | < 0.03 | recovery at 10 μM ([1]; read-out: % Recovery Mean): 71%
N[C@@H](Cc1ccc(O)c(O)c1)C(=O)N[C@@H](Cc1c[nH]c2ccccc12)C(=O)O [LD-Trp TFA salt, Levodopa Tryptophan] (H-[Dopa]-Trp-OH) | – | – | – | – | – | 0.04 | 0.03 | – | 52 | 51 | 51 | 50 | 45 | 47 | 71 | 82 | 77 | 0.01 | 0.01 | < 0.01 | –
N[C@@H](Cc1ccc(O)c(O)c1)C(=O)N[C@@H](CC(=O)O)C(=O)O [LD-Asp TFA salt, Levodopa Aspartic Acid] (H-[Dopa]-Asp-OH) | 47.8 | 34.1 | 41 | 55 | 64 | – | – | – | – | – | – | – | – | – | – | – | – | – | – | – | recovery at 10 μM ([1]; read-out: % Recovery Mean): 60%
NC(=O)C[C@H](NC(=O)[C@@H](N)Cc1ccc(O)c(O)c1)C(=O)O [LD-Asn TFA salt, Levodopa Asparagine TFA Salt] (H-[Dopa]-Asn-OH) | – | – | – | – | – | 0.6 | 0.47 | 0.5 | 62 | 78 | 70 | 65 | 62 | 63 | 85 | 84 | 85 | 0.42 | 0.39 | 0.4 | –
N[C@@H](Cc1ccc(O)c(O)c1)C(=O)N[C@@H](Cc1ccc(O)cc1)C(=O)O [LD-Tyr TFA salt, Levodopa Tyrosine TFA Salt] (H-[Dopa]-Tyr-OH) | 11 | 32.5 | 22 | 64 | 72 | 0.05 | 0.04 | – | 45 | 39 | 42 | 40 | 39 | 40 | 82 | 97 | 89 | 0.01 | 0.01 | < 0.01 | recovery at 10 μM ([1]; read-out: % Recovery Mean): 68%
NC(=O)CC[C@H](NC(=O)[C@@H](N)Cc1ccc(O)c(O)c1)C(=O)O [LD-Gln TFA salt, Levodopa Glutamine TFA Salt] (H-[Dopa]-Gln-OH) | – | – | – | – | – | 1.83 | 1.47 | 1.7 | 68 | 70 | 69 | 74 | 69 | 71 | 81 | 92 | 87 | 1.01 | 0.79 | 0.9 | –
N[C@@H](CSC[C@@H](NC(=O)[C@@H](N)Cc1ccc(O)c(O)c1)C(=O)O)C(=O)O (single isomer, unassigned; peak 1) [LD-LA1 TFA salt, Levodopa Lanthionine Peak 1 TFA Salt] | – | – | – | – | – | 0.2 | 0.21 | 0.2 | 82 | 77 | 79 | 58 | 67 | 62 | 80 | 86 | 83 | 0.28 | 0.22 | 0.3 | –
N=C(N)NCCC[C@H](NC(=O)[C@@H](N)Cc1ccc(O)c(O)c1)C(=O)O [LD-Arg TFA salt, Levodopa Arginine TFA Salt] | 91.5 | 91.2 | 91 | 79 | 79 | 0.1 | 0.09 | < 0.1 | 26 | 26 | 26 | 25 | 26 | 25 | 82 | 89 | 85 | 0.03 | 0.02 | < 0.03 | recovery at 10 μM ([1]; read-out: % Recovery Mean): 79%
